# In patent US20060094722A1 (Eisai Co., Ltd., priority 2002, published 2006):
# Where two headings read alike, the source gives them in different places.
# Tests used:
# [1] = test system: DPPIV-deficient male Fisher rats
# Description: Animals: DPPIV-deficient male Fisher rats (purchased from Charles River Japan, Inc.)
# Each test compound was suspended in a solution of 0.5% methyl cellulose at the doses indicated in Table 2, and then administered orally at a volume of 5 mL/kg. The vehicle control group was orally administered a solution of 0.5% methyl cellulose at a volume of 5 mL/kg.
# An unanesthetized rat was lightly cut at the caudal vein with a razor blade and bled immediately before, and at 1, 3, and 5 hours after the administration of a test compound or a solution of 0.5% methyl cellulose. 250 μL of blood was collected from the rat using a heparinized capillary and transferred into a centrifugation tube. The supernatant obtained by centrifugation (at 10000 g at 4° C. for 2 minutes) was assayed for GLP-1 level using Active GLP-1 ELISA kit (Linco).
# [2] = test system: DPPIV-intact normal male Fisher rats; experiment: Influences of metformin and DPPIV inhibitors (Examples 82, 119, 120, 122, 229, 267), singly or in combination, on GLP-1 level in normal rats; type: in vivo, rat; conditions: 3 hours
# Description: Animals: DPPIV-Intact Normal Male Fisher Rats (Purchased from CLEA Japan, Inc.)
# 250 μL of blood was collected from the rat using a heparinized capillary and transferred into a centrifugation tube.
# [3] = biological target: T1, DPPIV obtained from swine kidney (Sus scrofa, UniProt P22411); experiment: Assay for the DPPIV-inhibiting activity; type: biochemical; conditions: DPPIV 10 mU/mL; Gly-Pro-p-nitroanilide 0.33 mM; absorbance 405 nm; read-out: IC50
# T1 construct: DPPIV obtained from swine kidney; from tissue; host or cells: swine kidney
# Description: DPPIV obtained from swine kidney was dissolved in a reaction buffer (50 mM Tris-HCl (pH 7.4)/0.1% BSA) at a fmal concentration of 10 mU/mL. A 110 μL aliquot of this enzyme solution was added to the reaction system, and then 15 μL of an agent was added. The reaction solution was incubated at room temperature for 20 minutes. 25 μL of a solution containing 2 mM Gly-Pro-p-nitroanilide was added to the reaction solution (at the final concentration of 0.33 mM) to start the enzyme reaction. The reaction time was 20 minutes. 25 μL of 1N phosphate solution was added to stop the reaction. […] The degree of inhibition to the enzyme reaction was determined, and IC50 was computed based on the absorbance.
# Zucker fa/fa rats [4] = conditions: 30 mg/kg p.o. twice daily for 14 days
# Description: (§1) Animals: Zucker fa/fa Rats, an Animal Model for TypeII Diabetes (Purchased from Charles River Japan, Inc.)
# (§2) Each test compound was dissolved in distilled water at the doses shown in the Tables indicated below, and then administered orally at a volume of 5 mL/kg. The vehicle control group was orally administered distilled water at a volume of 5 mL/kg. […] The rats were tested for glucose tolerance on the first day of the administration series. In the test, distilled water and the test compounds were given 0.5 hour before glucose load.
# Food intake and body weight were determined at 4:00 p.m after the 14-day administration series. Total food intake and weight gain over 14 days were determined for each experimental group.
# [5] = test system: DPPIV-intact normal male Fisher rats; conditions: 30 mg/kg p.o.
# Description: Each test compound was suspended in a solution of 0.5% methyl cellulose at the doses indicated in Table 3, and then administered orally at a volume of 5 mL/kg. The vehicle control group was orally administered a solution of 0.5% methyl cellulose at a volume of 5 mL/kg.
# An unanesthetized rat was lightly cut at the caudal vein with a razor blade and bled immediately before, and at 1, 3, and 5 hours after administration of a test compound or a solution of 0.5% methyl cellulose. 250 μL of blood was collected from the rat using a heparinized capillary and transferred into a centrifugation tube. The supernatant obtained by centrifugation (at 10000 g at 4° C. for 2 minutes) was assayed for GLP-1 level using Active GLP-1 ELISA kit (Linco).
# Zucker fa/fa rats [6] = conditions: for Blood glucose level at each time point (hr) after oral glucose administration / GLP-1 concentration at each time point (hr) after oral glucose administration (% of Pre) / Insulin concentration at each time point (hr) after oral glucose administration: 30 mg/kg p.o. 0.5 hour before glucose load
# Description: as §1, §2
# For the glucose tolerance test, an unanesthetized rat was lightly cut at the caudal vein with a razor blade and bled immediately before the administration of a test compound or distilled water, and immediately before, and at 0.5, 1, 2, and 3 hours after glucose load. 250 μL of blood was collected from the rat using a heparinized capillary and transferred into a centrifugation tube. The supernatant obtained by centrifugation (at 10000 g at 4° C. for 2 minutes) was assayed for active GLP-1 level using Active GLP-1 ELISA kit (Linco). At the same time, 10 μL of blood was collected and mixed with 140 μL of a 0.6 M perchloric acid solution. The mixture was centrifuged (at 3000 g at 4° C. for 10 minutes), and the resulting supernatant was assayed for glucose using Glucose Test Wako II (Wako Pure Chemical Industries, Inc.). The level of blood glucose alone was determined at the time of measurement 3 hours after glucose load.
# Description for BALB/c AnCrj mice: Animals: BALB/c AnCrj Mice (Purchased from Charles River Japan, Inc.)
# 5-FU (purchased from Sigma) was suspended in a solution of 0.5% methyl cellulose, and then administered orally at a volume of 10 mL/kg/day (8 a.m. to 9 a.m.) for 3 days (60 mg/kg). […] The vehicle control group was orally administered a solution of 0.5% methyl cellulose at a volume of 10 mL/kg.
# Mice were fasted for 18 hours following the afternoon administration on the third day of the administration series. On the following day, the mice were killed by cervical dislocation, and then the whole small intestine was excised and the wet weight was measured.
# T1 sequence (P22411 whole entry): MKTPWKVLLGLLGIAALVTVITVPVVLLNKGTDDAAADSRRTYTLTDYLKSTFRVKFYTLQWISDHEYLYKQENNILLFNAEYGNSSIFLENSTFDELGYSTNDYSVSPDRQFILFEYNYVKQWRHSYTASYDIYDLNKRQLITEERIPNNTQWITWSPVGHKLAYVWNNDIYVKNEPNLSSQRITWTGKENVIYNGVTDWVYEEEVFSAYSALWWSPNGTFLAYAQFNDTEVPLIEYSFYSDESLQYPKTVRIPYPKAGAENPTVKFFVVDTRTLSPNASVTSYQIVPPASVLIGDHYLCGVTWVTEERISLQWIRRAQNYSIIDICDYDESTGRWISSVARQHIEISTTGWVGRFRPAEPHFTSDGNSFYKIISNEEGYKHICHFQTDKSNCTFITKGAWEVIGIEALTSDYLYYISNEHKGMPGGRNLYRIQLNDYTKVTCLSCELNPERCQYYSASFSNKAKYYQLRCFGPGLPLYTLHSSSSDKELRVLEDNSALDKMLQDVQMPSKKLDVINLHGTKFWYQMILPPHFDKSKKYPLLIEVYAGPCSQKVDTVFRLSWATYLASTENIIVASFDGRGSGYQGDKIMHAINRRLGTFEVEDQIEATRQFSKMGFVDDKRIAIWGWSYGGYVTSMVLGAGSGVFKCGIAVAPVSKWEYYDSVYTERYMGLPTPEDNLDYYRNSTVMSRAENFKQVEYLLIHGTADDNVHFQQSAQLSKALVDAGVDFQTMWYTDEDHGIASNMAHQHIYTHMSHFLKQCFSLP
smiles,measurement,setting,value
"CCCCNC(=N)NC(=N)N [Buformin, buformin]",GLP-1 concentration at each time point (hr) after oral administration (% of Pre),"[1]; 30 mg/kg p.o., 0 hr",100 ± 0.0 % of Pre
same,GLP-1 concentration at each time point (hr) after oral administration (% of Pre),"[1]; 30 mg/kg p.o., 1 hr",118.7 ± 9.3 % of Pre
same,GLP-1 concentration at each time point (hr) after oral administration (% of Pre),"[1]; 30 mg/kg p.o., 3 hr",122.7 ± 7.1 % of Pre
same,GLP-1 concentration at each time point (hr) after oral administration (% of Pre),"[1]; 30 mg/kg p.o., 5 hr",114.6 ± 4.4 % of Pre
same,GLP-1 concentration at each time point (hr) after oral administration (% of Pre),"[1]; 100 mg/kg p.o., 0 hr",100 ± 0.0 % of Pre
same,GLP-1 concentration at each time point (hr) after oral administration (% of Pre),"[1]; 100 mg/kg p.o., 1 hr",163.6 ± 19.6 % of Pre
same,GLP-1 concentration at each time point (hr) after oral administration (% of Pre),"[1]; 100 mg/kg p.o., 1 hr, listed as buformin",significantly elevated
same,GLP-1 concentration at each time point (hr) after oral administration (% of Pre),"[1]; 100 mg/kg p.o., 3 hr",171.2 ± 9.1 % of Pre
same,GLP-1 concentration at each time point (hr) after oral administration (% of Pre),"[1]; 100 mg/kg p.o., 5 hr",195.8 ± 36.6 % of Pre
same,GLP-1 concentration at each time point (hr) after oral administration (% of Pre),"[1]; 100 mg/kg p.o., 5 hr, listed as buformin",significantly elevated
"O=c1[nH]cc(F)c(=O)[nH]1 [Example 5-FU, 5-Fluorouracil]",wet weight of mouse small intestine,BALB/c AnCrj mice; 5-FU 60 mg/kg p.o. for 3 days,significantly decreased
"CC#CCn1c(N2CCNCC2)nc2nc(C#N)n(C)c(=O)c21.O=C(O)C(F)(F)F [Example 82, 7-(2-Butynyl)-2-cyano-1-methyl-8-(piperazin-1-yl)-1,7-dihydropurin-6-one trifluoroacetate]",GLP-1 concentration 3 hours after oral administration (% of Pre),[2]; 20 mg/kg p.o.,97.3 ± 2.1 % of Pre
"CC#CCn1c(N2CCNCC2)nc2cnn(C)c(=O)c21 [Example 119, 3-(2-Butynyl)-5-methyl-2-(piperazin-1-yl)-3,5-dihydroimidazo[4,5-d]pyridazin-4-one]",IC50,[3],154 nM
same,GLP-1 concentration 3 hours after oral administration (% of Pre),[2]; 10 mg/kg p.o.,98.9 ± 2.2 % of Pre
"CC#CCn1c(N2CCCC(N)C2)nc2cnn(C)c(=O)c21.O=C(O)C(F)(F)F (centres unmarked) [Example 120, 2-(3-Aminopiperidin-1-yl)-3-(2-butynyl)-5-methyl-3,5-dihydroimidazo[4,5-d]pyridazin-4-one trifluoroacetate]",GLP-1 concentration 3 hours after oral administration (% of Pre),[2]; 10 mg/kg p.o.,104.8 ± 2.9 % of Pre
"CC#CCn1c(N2CCNCC2)nc2nc(Oc3ccccc3C(N)=O)n(C)c(=O)c21 [Example 122, 2-[7-(2-Butynyl)-1-methyl-6-oxo-8-(piperazin-1-yl)-6,7-dihydro-1H-purin-2-yloxy]benzamide]",IC50,[3],15.3 nM
same,GLP-1 concentration 3 hours after oral administration (% of Pre),[2]; 10 mg/kg p.o.,108.2 ± 6.6 % of Pre
"CC#CCn1c(N2CCNCC2)nc2nc(C#N)n(Cc3ccccc3C#N)c(=O)c21.Cl [Example 229, 7-(2-Butynyl)-1-(2-cyanobenzyl)-6-oxo-8-(piperazin-1-yl)-6,7-dihydro-1H-purine-2-carbonitrile hydrochloride]",GLP-1 concentration 3 hours after oral administration (% of Pre),[2]; 10 mg/kg p.o.,102.5 ± 1.7 % of Pre
"CC#CCn1c(N2CCNCC2)nc2cnn(Cc3ccccc3C#N)c(=O)c21.O=C(O)C(F)(F)F [Example 267, 2-[3-(2-Butynyl)-4-oxo-2-(piperazin-1-yl)-3,4-dihydroimidazo[4,5-d]pyridazin-5-ylmethyl]benzonitrile trifluoroacetate]",GLP-1 concentration 3 hours after oral administration (% of Pre),[2]; 10 mg/kg p.o.,110.0 ± 9.0 % of Pre
"[H]/N=C(/N)N/C(=N/[H])NCCc1ccccc1 [Phenformin, phenformin]",GLP-1 concentration at each time point (hr) after oral administration (% of Pre),"[1]; 30 mg/kg p.o., 0 hr",100 ± 0.0 % of Pre
same,GLP-1 concentration at each time point (hr) after oral administration (% of Pre),"[1]; 30 mg/kg p.o., 1 hr",125.3 ± 10.7 % of Pre
same,GLP-1 concentration at each time point (hr) after oral administration (% of Pre),"[1]; 30 mg/kg p.o., 3 hr",120.0 ± 7.2 % of Pre
same,GLP-1 concentration at each time point (hr) after oral administration (% of Pre),"[1]; 30 mg/kg p.o., 5 hr",126.7 ± 10.7 % of Pre
same,GLP-1 concentration at each time point (hr) after oral administration (% of Pre),"[1]; 100 mg/kg p.o., 0 hr",100 ± 0.0 % of Pre
same,GLP-1 concentration at each time point (hr) after oral administration (% of Pre),"[1]; 100 mg/kg p.o., 1 hr",316.9 ± 26.4 % of Pre
same,GLP-1 concentration at each time point (hr) after oral administration (% of Pre),"[1]; 100 mg/kg p.o., 1 hr, listed as phenformin",significantly elevated
same,GLP-1 concentration at each time point (hr) after oral administration (% of Pre),"[1]; 100 mg/kg p.o., 3 hr",330.7 ± 112.4 % of Pre
same,GLP-1 concentration at each time point (hr) after oral administration (% of Pre),"[1]; 100 mg/kg p.o., 3 hr, listed as phenformin",significantly elevated
same,GLP-1 concentration at each time point (hr) after oral administration (% of Pre),"[1]; 100 mg/kg p.o., 5 hr",236.5 ± 20.5 % of Pre
same,GLP-1 concentration at each time point (hr) after oral administration (% of Pre),"[1]; 100 mg/kg p.o., 5 hr, listed as phenformin",significantly elevated
"CC(C)[C@H](N)C(=O)N1CCCC1 [Val-Pyr, valine pyrrolidide]",Total food intake for 14 days,Zucker fa/fa rats [4],491.8 ± 11.1 g
same,Weight gain for 14 days,Zucker fa/fa rats [4],60.9 ± 4.4 g
same,GLP-1 concentration at each time point (hr) after oral administration (% of Pre),[5]; 0 hr,100 ± 0.0 % of Pre
same,GLP-1 concentration at each time point (hr) after oral administration (% of Pre),[5]; 1 hr,127 ± 6 % of Pre
same,GLP-1 concentration at each time point (hr) after oral administration (% of Pre),[5]; 3 hr,136 ± 20 % of Pre
same,GLP-1 concentration at each time point (hr) after oral administration (% of Pre),[5]; 5 hr,91 ± 2 % of Pre
same,Wet weight of small intestine,"BALB/c AnCrj mice; 30 mg/kg p.o. twice a day, 5-FU treatment 60 mg/kg for 3 days, mice",0.637 ± 0.015 g
same,Wet weight of small intestine (g),"BALB/c AnCrj mice; 30 mg/kg p.o. twice a day, 5-FU treatment 60 mg/kg for 3 days, mice, listed as DPPIV inhibitor",no alteration
same,level of insulin during the glucose tolerance test,Zucker fa/fa rats [6],increased significantly
same,Blood glucose level at each time point (hr) after oral glucose administration,Zucker fa/fa rats [6]; 0 hr,110.5 ± 3.3 mg/dL
same,GLP-1 concentration at each time point (hr) after oral glucose administration (% of Pre),Zucker fa/fa rats [6]; 0 hr,119.5 ± 3.6 % of Pre
same,Insulin concentration at each time point (hr) after oral glucose administration,Zucker fa/fa rats [6]; 0 hr,13.1 ± 1.2 ng/mL
same,Blood glucose level at each time point (hr) after oral glucose administration,Zucker fa/fa rats [6]; 0.5 hr,166.0 ± 9.9 mg/dL
same,GLP-1 concentration at each time point (hr) after oral glucose administration (% of Pre),Zucker fa/fa rats [6]; 0.5 hr,217.6 ± 24.6 % of Pre
same,Insulin concentration at each time point (hr) after oral glucose administration,Zucker fa/fa rats [6]; 0.5 hr,32.4 ± 3.2 ng/mL
same,Blood glucose level at each time point (hr) after oral glucose administration,Zucker fa/fa rats [6]; 1 hr,167.1 ± 7.0 mg/dL
same,GLP-1 concentration at each time point (hr) after oral glucose administration (% of Pre),Zucker fa/fa rats [6]; 1 hr,197.5 ± 20.4 % of Pre
same,Insulin concentration at each time point (hr) after oral glucose administration,Zucker fa/fa rats [6]; 1 hr,27.7 ± 5.0 ng/mL
same,Blood glucose level at each time point (hr) after oral glucose administration,Zucker fa/fa rats [6]; 2 hr,139.3 ± 3.3 mg/dL
same,GLP-1 concentration at each time point (hr) after oral glucose administration (% of Pre),Zucker fa/fa rats [6]; 2 hr,128.3 ± 5.4 % of Pre
same,Insulin concentration at each time point (hr) after oral glucose administration,Zucker fa/fa rats [6]; 2 hr,14.4 ± 2.6 ng/mL
same,Blood glucose level at each time point (hr) after oral glucose administration,Zucker fa/fa rats [6]; 3 hr,115.1 ± 3.0 mg/dL
same,Blood glucose level at each time point (hr) after oral glucose administration,Zucker fa/fa rats [6]; −0.5 hr,102.6 ± 3.0 mg/dL
same,GLP-1 concentration at each time point (hr) after oral glucose administration (% of Pre),Zucker fa/fa rats [6]; −0.5 hr,100.0 ± 0.0 % of Pre
same,Insulin concentration at each time point (hr) after oral glucose administration,Zucker fa/fa rats [6]; −0.5 hr,8.8 ± 1.1 ng/mL
same,glucose tolerance,Zucker fa/fa rats [6]; glucose tolerance test,improved
